Earlier results, collected in US20070134341A1, “COMPOSITIONS OF LIPOXYGENASE INHIBITORS” (priority 2005, published 2007).

SMILES: CC(c1cc2ccccc2s1)N(O)C(N)=O (racemic) [Zileuton, (±)-1-(1-benzo[b]thien-2-ylethyl)-1-hydroxyurea]
- solubility in acetonitrile (acetonitrile): slightly soluble
- solubility in ethanol (ethanol): soluble
- solubility in hexane (hexane): practically insoluble
- solubility in methanol (methanol): soluble
- solubility in water (water): practically insoluble
- water solubility (water, 25° C.): 80 to 140 µg/mL
